The values below come from patent US10799605B2 (3B PHARMACEUTICALS GMBH, priority 2014, dated 2020).

Molecules are shown by their SMILES. Like-named read-outs stand apart in the source and are kept apart here. Some results are limits rather than exact numbers.

Test [1] deals with T1, NTR1 (Homo sapiens (Human), UniProt P30989). The experiment in a line: Radioligand binding assay NTR1 (example part I). As for the experimental part: In order to determine the binding affinity of compounds comprising a radiolabel for NTR1, a radioligand binding assay was carried out. A radioligand is a radioactive biochemical substance that is used for diagnosis or for research-oriented study of cellular receptor systems of the body. In […] systems it is often used to quantify the binding of a test molecule to the binding site of radioligand. The higher the affinity of the molecule, the more radioligand is displaced from the binding site. The amount of bound radioligand can be measured by scintillation counting and thereby quantified. This assay is commonly used to calculate binding constants of molecules to receptors.
T1 sequence (P30989 whole entry): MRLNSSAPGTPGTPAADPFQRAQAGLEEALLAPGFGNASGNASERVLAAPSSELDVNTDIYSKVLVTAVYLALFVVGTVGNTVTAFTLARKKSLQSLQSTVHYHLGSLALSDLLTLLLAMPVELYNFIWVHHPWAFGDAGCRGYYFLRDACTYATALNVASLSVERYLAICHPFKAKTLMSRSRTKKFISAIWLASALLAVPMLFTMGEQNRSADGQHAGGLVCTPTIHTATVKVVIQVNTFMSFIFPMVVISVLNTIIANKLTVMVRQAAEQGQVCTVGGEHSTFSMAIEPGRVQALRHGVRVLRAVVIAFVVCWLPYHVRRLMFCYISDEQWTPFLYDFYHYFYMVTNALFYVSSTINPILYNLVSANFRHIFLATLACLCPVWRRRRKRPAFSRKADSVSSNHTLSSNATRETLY
The NTR1 radioligand binding assay was performed by Cerep (Celle l'Evescault, France; Catalog reference 0109) according to Vita et al., FEBS Lett., 1993, 317, 139-142. NTR1 was prepared from CHO cells recombinantly expressing the human receptor and incubated with 0.05 nM ^125I-(Tyr^3-neurotensin) and serial dilutions of the test compounds. […] The result for each test compound is expressed as IC50 concentration and provides a measure for the affinity of the test compound for NTR1.

For test [2], the target named is T1, NTR1. Briefly: Functional Ca2+ mobilisation assay (example part I). Format: cell-based. The text has this: Ca^2+ ions are usually kept at nanomolar levels in the cytosol of cells, and act in a number of signal transduction pathways as second messengers. […] Changes in calcium ion concentration in standard assay protocols can be readily detected with fluorescent dyes that emit light when changes in intracellular Ca^2+ ion concentration occur. Given the transient nature of these responses, they are often read with instrumentation that has ‘inject and read’ capability.
(§1) HT29 or NTR1-expressing HEK293 cells were trypsinized and seeded into black flat clear-bottom 96-well plates (Corning, Amsterdam, The Netherlands) at […] cells per well. After 24 h incubation at 37° C. and 5% CO2, cells were washed twice with wash buffer (130 mM NaCl, 5 mM KCl, 10 mM Hepes, 2 mM CaCl2, 10 mM Glucose, pH 7.4) and loaded with 100 μl of Ca5 dye (Molecular Devices, Biberach, Germany) for 1 h at 37° C. and 5% CO2. For agonist assays, serial dilutions of agonistic substances were added to the cells loaded with dye and the change of the fluorescent signal was recorded continually for approx. 90 s using a FlexStation II (Molecular Devices, Biberach, Germany). Addition of wash buffer served as a control. Thus, EC50 concentrations for each conjugate were computed and provided a measure for the potency of the substance. For antagonist assays, cells loaded with 100 μl of Ca5-dye were pre-incubated with serial dilutions of antagonistic substances for 30 min, before the EC80-concentration of agonist was added to the cells and the change of the fluorescent signal was recorded continually for approx. 90 s. Thus, IC50 concentrations were computed for each conjugate and provided a measure for the inhibitory activity of the conjugates at the NTR1.
On the technique in general: Calcium assays in cells follow changes in intracellular calcium, usually with a dye or a luminescent sensor.

The target of test [3] is T1, NTR1. The experiment in a line: Functional Ca2+ mobilisation assay (example part II). In kind it is cell-based. The conditions noted are these: antagonist assay.
Description: Ca^2+ ions are usually kept at nanomolar levels in the cytosol of cells, and act in a number of signal transduction pathways as second messengers. […] Changes in calcium ion concentration in standard assay protocols can be readily detected with fluorescent dyes that emit light when changes in intracellular Ca2^+ ion concentration occur. Given the transient nature of these responses, they are often read with instrumentation that has ‘inject and read’ capability.
as §1, with “compound” for “conjugate”, “compounds” for “conjugates”

Where [4] appears, read: 0.05 nM 125I-(Tyr3-neurotensin), 60 min at 4° C., read-out: IC50.
Setting [5] is: agonist assay, * bell-shaped curves, EC50 from ascending part of the curve, read-out: Agonistic Effect EC50.
Where [6] appears, read: antagonist assay, 30 min pre-incubation, EC80-concentration of agonist, read-out: Antagonistic Effect IC50.

The IC50 is the concentration that gives 50% inhibition. Broadly, the EC50 is the midpoint of the concentration-response curve.

For the molecule `COc1cccc(OC)c1-c1cc(C(=O)NC2(C(=O)O)C3CC4CC(C3)CC2C4)nn1-c1ccc(C(=O)N(C)CCCN(C)CCCN(C)C(=O)CCCNC(=O)CCC(=O)NCCCOCCOCCOCCCNC(=O)[C@H](CCCCNC(=O)CN2CCN(CC(=O)O)CCN(CC(=O)O)CCN(CC(=O)O)CC2)NC(=O)CCC(=O)NCCCOCCOCCOCCCNC(=O)CCCC(=O)N(C)CCCN(C)CCCN(C)C(=O)c2ccc(-n3nc(C(=O)NC4(C(=O)O)C5CC6CC(C5)CC4C6)cc3-c3c(OC)cccc3OC)c(C(C)C)c2)cc1C(C)C` (stereo partly shown) [(12), 1206-Glutar-Ttds-Lys(DOTA)-Ttds-GABA-1206], the half-maximal inhibitory concentration (IC50) in test [1] (setting [4]) and in test [2] (setting [6]) was 2.5 nM in each case. For the same molecule, in test [2] (setting [5]), the EC50 is over 50000 nM.

Regarding `COc1cccc(OC)c1-c1cc(C(=O)NC2(C(=O)O)C3CC4CC(C3)CC2C4)nn1-c1ccc(C(=O)N(C)CCCN(C)CCCN(C)C(=O)CCCNC(=O)[C@H](CCCCNC(=O)CN2CCN(CC(=O)O)CCN(CC(=O)O)CCN(CC(=O)O)CC2)NC(=O)CCCC(=O)N(C)CCCN(C)CCCN(C)C(=O)c2ccc(-n3nc(C(=O)NC4(C(=O)O)C5CC6CC(C5)CC4C6)cc3-c3c(OC)cccc3OC)c(C(C)C)c2)cc1C(C)C` (stereo partly shown) [(13), 1206-Glutar-Lys(DOTA)-GABA-1206], the IC50 in test [1] (setting [4]) is 2.2 nM; in test [2] (setting [6]), 6.1 nM. For the same molecule, the EC50 in test [2] (setting [5]) is over 50000 nM.

Regarding `COc1cccc(OC)c1-c1cc(C(=O)NC2(C(=O)O)C3CC4CC(C3)CC2C4)nn1-c1ccc(C(=O)N(C)CCCN(C)CCCN(C)C(=O)CCCC(=O)NCCCCCC(=O)N[C@@H](CCCCNC(=O)CN2CCN(CC(=O)O)CCN(CC(=O)O)CCN(CC(=O)O)CC2)C(=O)N[C@@H](CCCCNC(=O)CCCC(=O)N(C)CCCN(C)CCCN(C)C(=O)c2ccc(-n3nc(C(=O)NC4(C(=O)O)C5CC6CC(C5)CC4C6)cc3-c3c(OC)cccc3OC)c(C(C)C)c2)C(N)=O)cc1C(C)C` (stereo partly shown) [(14), 1206-Glutar-Ahx-Lys(DOTA)-(ε-Lys-NH2)-Glutar-1206], the results for the IC50 in test [1] (setting [4]) and in test [2] (setting [6]) were 2.4 nM and 2.3 nM, respectively. In test [2] (setting [5]), the EC50 was over 50000 nM.

For the molecule `COc1cccc(OC)c1-c1cc(C(=O)NC2(C(=O)O)C3CC4CC(C3)CC2C4)nn1-c1ccc(C(=O)N(C)CCCN(C)CCCN(C)C(=O)CCCC(=O)NCCCC[C@H](NC(=O)CCC(=O)NCCCOCCOCCOCCCNC(=O)CCC(=O)NCCCOCCOCCOCCCNC(=O)CCC(=O)NCCCOCCOCCOCCCNC(=O)[C@H](CCCCNC(=O)CN2CCN(CC(=O)O)CCN(CC(=O)O)CCN(CC(=O)O)CC2)NC(=O)CCC(=O)NCCCOCCOCCOCCCNC(=O)CCC(=O)NCCCOCCOCCOCCCNC(=O)CCC(=O)NCCCOCCOCCOCCCNC(=O)CCCC(=O)N(C)CCCN(C)CCCN(C)C(=O)c2ccc(-n3nc(C(=O)NC4(C(=O)O)C5CC6CC(C5)CC4C6)cc3-c3c(OC)cccc3OC)c(C(C)C)c2)C(N)=O)cc1C(C)C` (stereo partly shown) [(15), 1206-Glutar-Ttds3-Lys(DOTA)-Ttds3-(ε-Lys-NH2)-Glutar-1206], in test [1], the IC50 is 4.7 nM. In test [2], this molecule displayed an EC50 of over 50000 nM and an IC50 of 2.3 nM.

`COc1cccc(OC)c1-c1cc(C(=O)NC2(C(=O)O)C3CC4CC(C3)CC2C4)nn1-c1ccc(C(=O)N(C)CCCN(C)CCCN(C)C(=O)CCCC(=O)NCCCOCCOCCOCCCNC(=O)CCC(=O)N[C@@H](CCCCNC(=O)CN2CCN(CC(=O)O)CCN(CC(=O)O)CCN(CC(=O)O)CC2)C(=O)NCCCOCCOCCOCCCNC(=O)CCC(=O)NCCCC(=O)N[C@@H](CCCNC(=N)N)C(=O)N[C@@H](CCCNC(=N)N)C(=O)N2CCC[C@H]2C(=O)N[C@@H](Cc2ccc(O)cc2)C(=O)N[C@H](C(=O)N[C@@H](CC(C)C)C(=O)O)C(C)(C)C)cc1C(C)C` (stereo partly drawn) [(16), 1206-Glutar-Ttds-Lys(DOTA)-Ttds-GABA-Arg-Arg-Pro-Tyr-Tle-Leu-OH]: the IC50 in test [1] worked out at 0.14 nM. In test [2], this molecule gave a half-maximal effective concentration (EC50) of 4 nM and an IC50 of 3.8 nM. Also, the “shape of EC50 curve” value in test [2] (agonist assay) was “bell-shaped EC50 curves”.

As for `COc1cccc(OC)c1-c1cc(C(=O)NC2(C(=O)O)C3CC4CC(C3)CC2C4)nn1-c1ccc(C(=O)N(C)CCCN(C)CCCN(C)C(=O)CCCC(=O)NCCCOCCOCCOCCCNC(=O)CCC(=O)N[C@@H](CCCCNC(=O)CN2CCN(CC(=O)O)CCN(CC(=O)O)CCN(CC(=O)O)CC2)C(=O)NCCCOCCOCCOCCCNC(=O)CCC(=O)NCCCC(=O)N[C@H](CCCNC(=N)N)C(=O)N[C@@H](CCCNC(=N)N)C(=O)N2CCC[C@H]2C(=O)N[C@@H](Cc2ccc(O)cc2)C(=O)N[C@H](C(=O)N[C@@H](CC(C)C)C(=O)O)C(C)(C)C)cc1C(C)C` (stereo partly drawn) [(17), 1206-Glutar-Ttds-Lys(DOTA)-Ttds-GABA-arg-Arg-Pro-Tyr-Tle-Leu-OH], the IC50 was determined as 0.32 nM in test [1] and 3.4 nM in test [2]. In test [2], this molecule came in with an EC50 of 7 nM. Besides, the “shape of EC50 curve” value in test [2] (agonist assay) is given as “bell-shaped EC50 curves”.

In the case of `COc1cccc(OC)c1-c1cc(C(=O)NC2(C(=O)O)C3CC4CC(C3)CC2C4)nn1-c1ccc(C(=O)N(C)CCCN(C)CCCN(C)C(=O)CCCC(=O)NCCCOCCOCCOCCCNC(=O)CCC(=O)NCCCOCCOCCOCCCNC(=O)CCC(=O)NCCCOCCOCCOCCCNC(=O)CCC(=O)N[C@@H](CCCCNC(=O)CN2CCN(CC(=O)O)CCN(CC(=O)O)CCN(CC(=O)O)CC2)C(=O)NCCCOCCOCCOCCCNC(=O)CCC(=O)NCCCOCCOCCOCCCNC(=O)CCC(=O)NCCCOCCOCCOCCCNC(=O)CCC(=O)NCCCC(=O)N[C@H](CCCNC(=N)N)C(=O)N[C@@H](CCCNC(=N)N)C(=O)N2CCC[C@H]2C(=O)N[C@@H](Cc2ccc(O)cc2)C(=O)N[C@H](C(=O)N[C@@H](CC(C)C)C(=O)O)C(C)(C)C)cc1C(C)C` (stereo partly drawn) [(18), 1206-Glutar-Ttds3-Lys(DOTA)-Ttds3-GABA-arg-Arg-Pro-Tyr-Tle-Leu-OH], the IC50 in test [1] stood at 2.7 nM. In addition, in test [2], the EC50 is over 50000 nM and the IC50 was 3.8 nM.

On to `COc1cccc(OC)c1-c1cc(C(=O)N[C@H](C(=O)O)C2CCCCC2)nn1-c1ccc(C(=O)N(C)CCCN(C)CCCN(C)C(=O)CN2CCN(CC(=O)O)CCN(CC(=O)O)CCN(CC(=O)O)CC2)cc1C(C)C` [(IVa), (S)-2-{[1-{4-[(3-{[3-(DOTA-methyl-amino)-propyl]-methyl-amino}-propyl)-methyl-carbamoyl]-2-isopropyl-phenyl}-5-(2,6-dimethoxy-phenyl)-1H-pyrazole-3-carbonyl]-amino}-cyclohexyl-acetic acid], for which the IC50 in test [3] is 125 nM.

For the molecule `COc1cccc(OC)c1-c1cc(C(=O)NC2(C(=O)NCCNC(=O)CN3CCN(CC(=O)O)CCN(CC(=O)O)CCN(CC(=O)O)CC3)C3CC4CC(C3)CC2C4)nn1-c1ccc(C(=O)N(C)CCCN(C)C)cc1C(C)C` (stereo not shown) [(XVII), 5-(2,6-Dimethoxy-phenyl)-1-{4-[(3-dimethylamino-propyl)-methyl-carbamoyl]-2-isopropyl-phenyl}-1H-pyrazole-3-carboxylic acid [2-(2-DOTA-amino-ethylcarbamoyl)-adamantan-2-yl]-amide, reference compound], the “IC50 [nM] Ca” value in test [3] is “inactivity”.
